# Experiments:
# [1] = test system: c-myc, cyclin D1, activated caspase-3 and cleaved PARP-1 in MyLa cells; experiment: Western blot of marker proteins with anti-oxidants or H2O2; type: cell-based, human; conditions: for effect of anti-oxidant on NEO212-induced marker changes: 200 and 500 μM AA or 100 and 300 μM b-ME before 80 μM NEO212, 48 hours
# Excerpt: 2. Material and methods 2.1. […] 2.2. […] 2.3. […] 2.4.
# [2] = test system: subcutaneous U-87 gliomas; experiment: Nude mouse subcutaneous glioma model, tumor growth inhibition; type: in vivo, nude mice; conditions: local application via Q-tip, 1 cc/application/day, 8 weeks; growth over 60 days
# Procedure: Inhibition of tumor growth by butyryl-POH was studied in a nude mouse subcutaneous glioma model. Mice were injected with U-87 glioma cells (500,000 cells/injection) and allowed to form a palpable nodule over two weeks. Once palpable nodule was formed, the mice were treated with local application of various compounds as indicated in FIGS. 9A and 9B via a Q-tip (1 cc/application/day) over a period of 8 weeks.
# [3] = test system: USC-02 glioma cancer stem cells; experiment: MTT cytotoxicity assay, USC-02; type: cell-based; conditions: USC-02; TMZ 0-400 uM, POH 0-2 mM
# Excerpt: (§1) Cancer Lett. 2011 Mar. 28; 302(2):100-8.
# [4] = test system: HUT102 cells; experiment: MTT cell viability assay, HUT102 (Example 15); type: cell-based, human; conditions: HUT102, 72 hours
# Excerpt: (§2) 2. Material and methods 2.1. […] 2.2. […] 2.3. […] 2.4. […] 2.5.
# [5] = test system: TMZ sensitive (U251) cells; experiment: Colony forming assay, TMZ sensitive U251; type: cell-based, human
# Procedure: (§3) Colony forming assays were carried out after cells were treated with TMZ alone, POH alone, and the TMZ-POH conjugate. […] Cancer Lett. 2011 Mar. 28; 302(2):100-8.
# [6] = test system: glioblastoma, breast cancer, or melanoma cell lines; conditions: various in vitro cytotoxicity assays; cited from earlier work
# [7] = test system: TMZ resistant (U251TR) U251 cells; experiment: Colony forming assay, TMZ resistant U251TR; type: cell-based, human
# Procedure: as §3
# [8] = test system: USC-04 glioma cancer stem cells; experiment: MTT cytotoxicity assay, USC-04; type: cell-based; conditions: USC-04; TMZ 0-400 uM, POH 0-2 mM
# Excerpt: as §1
# [9] = test system: U87, A172 and U251 human glioma cells; experiment: MTT cytotoxicity assay on human malignant glioma cells; type: cell-based
# Excerpt: In vitro efficacy of the present composition can be determined using methods well known in the art. For example, the cytotoxicity of the present monoterpene (or sesquiterpene) and/or the therapeutic agents may be studied by MTT [3-(4,5-dimethylthiazol-2-yl)-2,5-diphenyl tetrazolium bromide] cytotoxicity assay. MTT assay is based on the principle of uptake of MTT, a tetrazolium salt, by metabolically active cells where it is metabolized into a blue colored formazon product, which can be read spectrometrically. J. of Immunological Methods 65: 55 63, 1983. The cytotoxicity of the present monoterpene (or sesquiterpene) derivative and/or the therapeutic agents may be studied by colony formation assay. Functional assays for inhibition of VEGF secretion and IL-8 secretion may be performed via ELISA. Cell cycle block by the present monoterpene (or sesquiterpene) derivative and/or the therapeutic agents may be studied by standard propidium iodide (PI) staining and flow cytometry. Invasion inhibition may be studied by Boyden chambers. In this assay a layer of reconstituted basement membrane, Matrigel, is coated onto chemotaxis filters and acts as a barrier to the migration of cells in the Boyden chambers. Only cells with invasive capacity can cross the Matrigel barrier. Other assays include, but are not limited to cell viability assays, apoptosis assays, and morphological assays.
# Then U87, A172 and U251 cells were treated with dimethyl celecoxib bisPOH carbamate (POH-DMC) (e.g., synthesized by the method in Example 1), and the MTT cytotoxicity assays performed (FIG. 2).
# Then TMZ-resistant glioma cell lines U87, A172 and U251 cells were treated with temozolomide POH carbamate (POH-TMZ) (e.g., synthesized by the method in Example 3).
# [10] = test system: LN229 human glioma cells; experiment: MTT assay, rolipram vs POH-Rolipram, LN229; type: cell-based; conditions: for IC50: MTT
# Procedure: (§4) To compare the cytotoxicity of Rolipram POH Carbamate (POH-Rolipram) (e.g., synthesized by the method in Example 5) with rolipram, a […] inducing differentiation and apoptosis in glioma cells, A172, U87, U251 and LN229 human glioma cells were treated with either POH-Rolipram or rolipram for 48 hours. […] In the presence of POH-rolipram, IC50 is achieved at concentrations as low as 50 uM. […] IC50 is not met at 1000 uM. […] POH-rolipram achieves IC50 at 50 uM, with almost 100% cytoxicity at 100 uM. […] On the other hand, IC50 for POH-rolipram is achieved at 100 uM, with almost 100% cytotoxicity at […].
# [11] = test system: U251 human glioma cells; experiment: MTT assay, rolipram vs POH-Rolipram, U251; type: cell-based; conditions: for IC50: 48 hours, MTT
# Procedure: as §4
# [12] = test system: A172 human glioma cells; experiment: MTT assay, rolipram vs POH-Rolipram, A172; type: cell-based; conditions: A-172 cells, 48 hours
# Procedure: as §4
# [13] = test system: U87 human glioma cells; experiment: MTT assay, rolipram vs POH-Rolipram, U87; type: cell-based; conditions: U-87 cells, 48 hours
# Procedure: as §4
# [14] = test system: HuT 78 cells; experiment: MTT assay on HuT 78 cells (Example 14); conditions: HuT 78, 72 hours
# Procedure: HuT 78 cells are cutaneous T lymphocytes derived from a patient with Sézary syndrome.
# HuT 78 cells were treated in vitro with (i) temozolomide (50, 100, 250 μM), (ii) POH-TMZ conjugate (“NEO212”, 25, 50, 100 μM), (iii) NEO412 which is the triple conjugate of temozolomide (TMZ), perillyl alcohol (POH), and linoleic acid (25, 50, 100, 250 μM), or (iv) vehicle alone. Seventy-two hours after the addition of drugs or vehicle, cell viability was determined by standard MTT (methylthiazoletetrazolium) assay.
# [15] = cancer patients; cited from earlier work
# [16] = test system: HUT78 cells; experiment: FACS analysis of cell death with 7-AAD; type: cell-based, human; conditions: HUT78, highest concentration 300, 72 hours
# Excerpt: as §2
# [17] = test system: HUT78 cells; experiment: MTT cell viability assay, HUT78 (Example 15)
# Procedure: Pharmacological agents—NEO212 was dissolved in DMSO at 100 mM. TMZ was purchased from Sigma Aldrich (St. Louis, Mo.) and dissolved in DMSO (Santa Cruz Biotechnology, Dallas, Tex.) to a concentration of 50 mM. POH was purchased from Sigma-Aldrich and diluted in DMSO to 100 mM. […] Stock solutions of all drugs were stored at −20° C. Staurosporine (STSP) was purchased from Selleck Chemicals (Houston, Tex.), stored at 4° C. protected from light, and dissolved in DMSO before use. Ascorbic acid (AA) and beta-mercaptoethanol (b-ME) (Sigma Aldrich) were prepared fresh before use. Crystalline AA was dissolved in phosphate-buffered saline (PBS) to 25 mM; b-ME was diluted in medium to 25 mM. […] Cell lines—Three different human CTLC cell lines were used. […] Both media also contained 100 U/mL penicillin and 0.1 mg/mL streptomycin. Penicillin, streptomycin, and RPMI (prepared with raw materials from Cellgro/MediaTech, Manassas, Va.) were provided by the Cell Culture Core lab of the USC/Norris Comprehensive Cancer Center. […] Cells were kept in a humidified incubator at 37° C. and a 5% CO2 atmosphere. FBS was obtained from Omega Scientific (Tarzana, Calif.) and from X&Y Cell Culture (Kansas City, Mo.). […] MTT assay—Methylthiazoletetrazolium (MTT) assays were performed as follows. Cells were seeded into 96-well plates in a volume of 50 μL per well at 3.0-5.0×10^5 cells/mL. An additional 50 μL of medium containing various concentrations of drug (or vehicle) was added and the cells were incubated for different lengths of time. This was followed by the addition of 10 μL thiazolyl-blue tetrazolium (i.e., MTT; Sigma Aldrich) from a stock solution of 5 mg/mL in phosphate-buffered saline (PBS). Cells were returned to the incubator for 4 hours. Thereafter, the reaction was stopped and the cells were lysed by the addition of 100 μL solubilization solution (10% sodium dodecyl sulfate in 0.01 M hydrochloric acid). The 96-well plate was left in the cell culture incubator over night for complete solubilization of the MTT crystals, and the optical density (OD) of each well was determined the next day in an ELISA plate reader at 560 nm. The background value (=OD of control wells containing medium without cells+MTT+solubilization solution) was subtracted from all measured values. In individual experiments, each treatment condition was set up in quadruplicate, and each experiment was repeated several times independently. […] Cell proliferation analysis—Cell proliferation was assessed by counting cells over time. Independent cell cultures were exposed to different concentrations of NEO212. At different times, aliquots of cells were removed, mixed with Trypan blue, and counted in a hemocytometer. Blue cells were considered dead, whereas unstained cells were counted as live cells. […] Fluorescence-activated cell sorting (FACS) analysis—Cells were seeded in 6-well tissue culture plates at 2×10^5 cells/mL, followed by drug treatment. After 72 hours, cells were collected, washed twice with PBS, transferred to a microcentrifuge tube, and suspended in 200 μL of 1× binding buffer solution, which was made fresh from 10x binding buffer (0.2 μm sterile-filtered 0.1 M HEPES, pH 7.4; 1.4 M NaCl; 25 mM CaCl2)). Then 1 μL of a 1 mg/mL 7-amino-actinomycin D (7-AAD) solution (Thermo Fisher Scientific, Waltham, Mass.) was added. After 20 minutes of incubation on ice, cell fluorescence was analyzed on a FACSAria Flow Cytometer (Becton Dickinson Biosciences Ltd., Franklin Lakes, N.J.).
# [18] = test system: MyLa cells; experiment: MTT cell viability assay, MyLa (Example 15); type: cell-based, human; conditions: Homo sapiens, 72 hours
# Excerpt: as §2
compound,measurement,setting,value
"O=C1O[C@H]([C@@H](O)CO)C(O)=C1O [AA, ascorbic acid]",effect of anti-oxidant on NEO212-induced marker changes,[1],prevented the anticancer impact of NEO212
C=C(C)C1CC=C(COC(=O)CCC)CC1 (stereo not shown) [Butyryl-POH],inhibition of tumor growth,[2],greatest inhibition of tumor growth
"OO [H2O2, hydrogen peroxide]",effect on proliferation and apoptosis markers,"[1]; 200 μM H2O2, 48 hours","clear down-regulation of c-myc and cyclin D1 proteins, along with strong activation of caspase-3 and cleavage of PARP-1"
"C=C(C)[C@@H]1CC=C(CO)CC1 [POH, perillyl alcohol, reference compound]",cytotoxicity in MTT assay,[3],demonstrated cytotoxicity
same,activity on viability in MTT assay,[4]; up to 300 μM,very minimal activity
same,cytotoxicity in colony forming assay,[5],demonstrated cytotoxicity
same,IC50,[6],700 to 1800 µM
same,cytotoxicity in colony forming assay,[7],demonstrated cytotoxicity
same,cytotoxicity in MTT assay,[8],demonstrated cytotoxicity
C=C(C)C1CC=C(COC(=O)N(C(=O)OCC2=CCC(C(=C)C)CC2)S(=O)(=O)c2ccc(-n3nc(C(F)(F)F)cc3-c3cc(C)ccc3C)cc2)CC1 (stereo not shown) [POH-DMC],cytotoxicity in MTT assay,[9],much better cytotoxicity than DMC alone
"C=C(C)C1CC=C(COC(=O)N2CC(c3ccc(OC)c(OC4CCCC4)c3)CC2=O)CC1 (stereo not shown) [POH-rolipram, 4-(3-cyclopentyloxy-4-methoxyphenyl)-2-oxo-pyrrolidine-1-carboxylic acid 4-isopropenyl cyclohex-1-enylmethyl ester]",IC50,[10]; 48 hours,100 µM
same,cytotoxicity,[10]; at 10 uM,~100%
same,IC50,[11]; U251 cells,50 µM
same,cytotoxicity,"[11]; U251 cells, at 100 uM",~100%
same,IC50,[12],50 µM
same,IC50,[13],180 µM
"Cn1nnc2c(C(N)=O)ncn2c1=O [TMZ, temozolomide, reference compound]",cytotoxicity in MTT assay,[3],did not induce significant cytotoxicity
same,cytotoxic effect on MF cells in MTT assay,[14],does not show much cytotoxicity
same,peak plasma levels,[15],50 to 70 µM
same,IC50,"[4]; Homo sapiens, HuT-102",6 to 8 µM
same,cytotoxicity in colony forming assay,[5],demonstrated cytotoxicity
same,cell death,[16],26%
same,reduction of viability,"[17]; HUT78, 100 μM",about 30%
same,IC50,"[17]; HUT78, 72 hours",> 300 µM
same,cytotoxicity in colony forming assay,[7],minimal cytotoxicity
same,IC50,[18],> 300 µM
same,cytotoxicity in MTT assay,[8],did not induce significant cytotoxicity
same,cytotoxicity in MTT assay,[9],minimal cytotoxicity
"OCCS [b-ME, beta-mercaptoethanol]",effect of anti-oxidant on NEO212-induced marker changes,[1],prevented the anticancer impact of NEO212
"COc1ccc(C2CNC(=O)C2)cc1OC1CCCC1 (stereo not shown) [rolipram, reference compound]",IC50,"[10]; Homo sapiens, LN-229, 48 hours",> 100 µM
same,IC50,"[11]; Homo sapiens, U-251, U251 cells",170 µM
same,plateau cytotoxicity,"[11]; human, 48 h",60%
same,IC50,[12]; Homo sapiens,~1000 µM
same,IC50,"[13]; Homo sapiens, U-87 MG",> 1000 µM
